The record followed here is patent US11980616B2, “Treating liver disease by selectively eliminating senescent cells” (Buck Institute for Research on Aging, priority 2014, dated 2024).

Series [1] relates to p16-3MR mice fed a high fat diet. The experiment in a line: Glucose tolerance and insulin sensitivity in p16-3MR mice fed a high fat diet. It is filed as in vivo, mouse. The method, then: Groups of p16-3MR mice (n=9) were fed a high fat diet for four months mice or a regular chow diet. Animals were then treated with ganciclovir (3 rounds of 25 mg/kg ganciclovir administered daily for five consecutive days) or vehicle. A glucose bolus was given at time zero, and blood glucose was monitored at 20, 30, 60, and 120 minutes after delivering glucose to determine glucose disposal (see FIG. 69A). […] Insulin sensitivity was also determined (Insulin Tolerance Testing (ITT)). […] Changes in weight, body composition, and food intake were also monitored.

The test system of series [2] is non-senescent pre-adipocytes (Non Sen Pread). As to the kind of experiment: Cell count toxicity assay, non-senescent pre-adipocytes. It is filed as cell-based. The following applies: 0, 2.5, 10 μM, 11 days. The protocol:
(§1) Non-senescent aortic endothelial (Endo Aort) cells and pre-adipocytes (Pread) were also treated with varying concentrations (0, 2.5 μM, and 10 μM) of Nutlin-3a for a period of 11 days to assess Nutlin-3a toxicity, as described above. Cell counts were taken at the start at Day 0 (NS start) and at the end of Nutlin-3a treatment (NS 0). The difference between counts of cells not treated with Nutlin-3a on day 11 (NS 0) and cell counts from NS start reflects the cell growth over the indicated time period. […] Decrease in apparent survival between NS 0 and NS 2.5 and between NS 0 and NS 10 reflects a decrease in cell growth.

Series [3] deals with non-senescent aortic endothelial (Non Sen Endo Aort) cells. As to the kind of experiment: Cell count toxicity assay, non-senescent aortic endothelial cells. It is filed as cell-based. The following applies: 0, 2.5, 10 μM, 11 days. The method, then: as §1
For series [4], the system named is DNA damage response proteins in senescent IMR90 cells. The experiment in a line: Immunoblot of DNA damage response proteins in irradiated senescent IMR90 cells. The format is cell-based, human. The method, then: Primary human fibroblast (IMR90) cells were induced to senesce by applying 10 Gy of irradiation. Seven days after irradiation (Day 0), cells were treated with 10 μM Nutlin-3a or vehicle (DMSO) for nine days (Day 9). The drug or vehicle was refreshed every three days. Drug/vehicle was removed at Day 9 and the cells were cultured for an additional six days in media without drug or DMSO, changing media every three days. Cells were collected at Day 0 (non-senescent cells), Day 9, Day 12, and Day 15, and protein extracted and processed for immunoblotting (Western blotting). Two samples were processed at each time point; the results are provided for one sample in FIG. 14.
Background: A western blot detects proteins with antibodies after separation by electrophoresis.

Series [5] concerns doxorubicin-induced senescent cells in p16-3MR mice. As to the kind of experiment: Removal of doxorubicin-induced senescent cells in p16-3MR transgenic mice. It is filed as in vivo, mouse. The method, then:
The capability of Nutlin-3a to remove senescent cells in vivo was determined in transgenic p16-3MR mice (see, e.g., International Application Publication No. WO2013/090645). The transgenic mouse comprises a p16^Ink4a promoter operatively linked to a trimodal fusion protein for detecting senescent cells and for selective clearance of senescent cells in these transgenic mice, which is illustrated in FIG. 7. […] 3MR (tri-modality reporter) is a fusion protein containing functional domains of a synthetic Renilla luciferase (LUC), monomeric red fluorescence protein (mRFP), and truncated herpes simplex virus (HSV)-1 thymidine kinase (tTK), which allows killing by ganciclovir (GCV) (see, e.g., Ray et al., Cancer Res. 64:1323-30 (2004)). The 3MR cDNA was inserted in frame with p16 in exon 2, creating a fusion protein containing the first 62 amino acids of p16, but not a full-length wild-type p16 protein. […] The p16^Ink4a gene promoter (approximately 100 kilobase pairs) was introduced upstream of a nucleotide sequence encoding a trimodal reporter fusion protein. Alternatively, a truncated p16^Ink4a promoter may be used (see, e.g., Baker et al., Nature, supra; International Application Publication No. WO2012/177927; Wang et al., supra). Thus, the expression of 3MR is driven by the p16^Ink4a promoter in senescent cells only. The detectable markers, LUC and mRFP permitted detection of senescent cells by bioluminescence and fluorescence, respectively. […] Transgenic founder animals, which have a C57B16 background, were established and bred using known procedures for introducing transgenes into animals (see, e.g., Baker et al., Nature 479:232-36 (2011)).
Female C57/BL6 p16-3MR mice were randomized into doxorubicin+Nutlin-3a treated or doxorubicin only treated groups (see FIG. 6). Senescence was induced by intraperitoneal administration of doxorubicin at 10 mg/kg to the mice ten days prior to administration of Nutlin-3a (Day −10). Nutlin-3a (25 mg/kg) was administered intraperitoneally daily from day 10 to day 24 post-doxorubicin treatment (Group=9 mice). Control mice (doxorubicin treated) were injected with equal volumes of PBS (Group=3 mice). Luminescence imaging (Xenogen Imaging system) was performed at Day 0 (i.e., 10 days post-doxorubicin treatment) as a baseline for each mouse (100% intensity).
Luminescence imaging of the mice was performed on day 7, 14, 21, 28, and 35 following the initiation of Nutlin-3a treatment. Reduction of luminescence (L) was calculated as: L=(Imaging post-Nutlin-3a treatment)/(Baseline Imaging)[…]. If L is greater than or equal to 100%, the number of senescent cells was not reduced. If L is less than 100%, then the number of senescent cells was reduced. Every mouse was calculated independently, and background was subtracted from each sample.
Experiments were performed to determine the effect of Nutlin-3a treatment on expression of genes associated with senescence. Groups of female C57/BL6 p16-3MR were treated as described above. Three weeks after the end of Nutlin-3a treatment (day 35), the doxorubicin treated mice (control) (N=3) and doxorubicin+Nutlin-3a-treated mice (N=6) were sacrificed. […]
RNA was analyzed for mRNA levels of endogenous senescence markers (p21, p16^INK4a (p16), and p53) and SASP factors (mmp-3 and IL-6) relative to actin mRNA (control for cDNA quantity) using the Roche Universal Probe Library for real-time PCR assay. […]

Where [6] appears, read: 3 rounds of 25 mg/kg daily for five days, vs vehicle.
Setting [7] is: 10 μM, decreased when the drug was removed.

For the compound `Nc1nc(O)c2ncn(COC(CO)CO)c2n1` [ganciclovir], the “Insulin Tolerance Testing: blood glucose” value in series [1] (0, 14, 30, 60, and 120 minutes) was “greater decrease in blood glucose”. Moreover, in series [1] (setting [6]), the “Glucose tolerance test AUC” value was “significantly lower” and the “Hemoglobin A1c” value is “lower”.

Regarding `COc1ccc(C2=N[C@@H](c3ccc(Cl)cc3)[C@@H](c3ccc(Cl)cc3)N2C(=O)N2CCNC(=O)C2)c(OC(C)C)c1` [Nutlin-3a], in series [2], the “Proliferation (percent growth)” value was “reduces proliferation” and the “Toxicity (cell number vs starting level)” value is “non-toxic”. In series [3], the “Proliferation (percent growth)” value was “reduces proliferation” and the “Toxicity (cell number vs starting level)” value is recorded as “non-toxic”. Also, the “Phosphorylation of H2AX (γH2AX)” value in series [4] (10 μM, after treatment and after drug removal) is recorded as “declining levels of phosphorylation”. Also, the “Phosphorylation of the kinase ATM (pATM S1981)” value in series [4] (10 μM, also after drug removal) is listed as “lower”. Moreover, in series [4] (setting [7]), the “Level of MDM2” value is “elevated”, the “Level of p21” value was “elevated” and the “Level of p53” value is “elevated”. Besides, the “Level of IkBa” value in series [4] (after drug is removed) was “approaches the level of IkBa in non-senescent cells”. Further, the “Luminescence associated with doxorubicin-induced senescence (% of baseline)” value in series [5] (25 mg/kg i.p. daily day 10 to 24 post-doxorubicin) is “reduced luminescence”. In addition, the Decrease in luminescence result in series [5] (25 mg/kg i.p. daily, at day 14, day 28 and day 35) is “statistically significant decrease”. Further, in series [5] (day 35, vs doxorubicin alone), the “γH2AX positive cells (DNA damage) in lung sections” value was “reduced the number of cells with DNA damage”. Besides, in series [5] (skin and fat, day 35, vs doxorubicin alone), the “mRNA of SASP factors (mmp-3, IL-6) and senescence markers (p21, p16, p53)” value is “reduced expression”. Besides, in series [5] (three weeks after treatment, vs doxorubicin alone), the “Senescence-associated β-gal intensity in fat biopsies” value is given as “reduced senescence-associated β-gal intensity”.
